# Laboratory results: publication PMC10803289, “Transport and inhibition mechanism of the human SGLT2–MAP17 glucose transporter” (Nature Structural & Molecular Biology, 2023)
# “And” between values parts separate entries of the source, which are not always exact repeats. Identical values can stand only once.
# Legend:
# [1] = test system: β-glucosidase in the intestine; parameters: method as in PMID 21358697; conditions: O-glucoside hydrolyzed by β-glucosidase in the intestine; cited from earlier work
# [2] = biological target: T1, wild-type hSGLT2 (membrane fraction of hSGLT2 and MAP17 expressing cells) (Homo sapiens, UniProt P31639); assay: SGLT2 inhibitor-binding assay via affinity selection–mass spectrometry, crude membrane, WT
# T1 construct: expressed in transfected cells; host or cells: Expi293 cells, crude membrane fraction
# T1 sequence (P31639 1-672): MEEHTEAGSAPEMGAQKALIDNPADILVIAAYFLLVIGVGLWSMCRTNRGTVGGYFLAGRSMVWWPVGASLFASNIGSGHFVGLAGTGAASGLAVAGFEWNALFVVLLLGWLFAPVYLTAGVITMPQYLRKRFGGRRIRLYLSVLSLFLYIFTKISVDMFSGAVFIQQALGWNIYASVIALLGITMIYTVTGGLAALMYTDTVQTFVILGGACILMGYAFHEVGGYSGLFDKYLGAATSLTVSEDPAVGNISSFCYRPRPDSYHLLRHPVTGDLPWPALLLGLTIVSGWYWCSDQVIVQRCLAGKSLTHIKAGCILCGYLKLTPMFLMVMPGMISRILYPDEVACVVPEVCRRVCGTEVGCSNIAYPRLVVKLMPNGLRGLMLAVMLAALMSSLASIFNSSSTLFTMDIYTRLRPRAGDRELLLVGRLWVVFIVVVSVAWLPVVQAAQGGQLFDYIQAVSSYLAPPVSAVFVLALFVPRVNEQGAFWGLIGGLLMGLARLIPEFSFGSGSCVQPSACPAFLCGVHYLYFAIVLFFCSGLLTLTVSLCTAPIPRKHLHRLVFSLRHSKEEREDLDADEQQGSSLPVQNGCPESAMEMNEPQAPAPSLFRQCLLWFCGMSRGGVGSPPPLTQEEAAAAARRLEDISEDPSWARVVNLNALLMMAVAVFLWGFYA
# T1 sequence (Q13113 1-114 partner): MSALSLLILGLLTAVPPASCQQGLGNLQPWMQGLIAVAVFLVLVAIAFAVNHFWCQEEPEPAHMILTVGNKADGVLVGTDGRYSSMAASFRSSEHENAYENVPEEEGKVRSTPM
# Description: To examine the inhibition of binding to the crude membrane, mammalian Expi293 cells were co-transfected with the hMAP17 and hSGLT2 plasmids, as described. The cells were collected and disrupted by sonication in a hypotonic buffer (50 mM HEPES–NaOH (pH 7.5), 10 mM KCl and protease inhibitor cocktail) or Na^+-free hypotonic buffer (50 mM Tris–HCl (pH 7.5), 10 mM KCl and protease inhibitor cocktail). The cell debris were removed by centrifugation (2,000g, 5 min, 4 °C). The membrane fraction was collected by ultracentrifugation (112,000g, 30 min, 4 °C) and stored at −80 °C before use. The crude membrane (250 μg per sample) was incubated with SGLT2 inhibitor in an assay buffer (100 mM NaCl and 10 mM HEPES/Tris, pH 7.4) or Na^+-free assay buffer (100 mM choline chloride and 10 mM HEPES/Tris, pH 7.4) at room temperature for 2 h. Reactions were terminated by filtration through a GF/C filter plate (Corning) presoaked in assay buffer containing 0.1% bovine serum albumin. The sample in the filter plate was washed three times with the assay buffer and eluted with acetonitrile: water (80:20, v/v). The extract solution from the filter plate was diluted with water containing candesartan as an internal standard, and the SGLT2 inhibitor concentration was quantified via LC–MS/MS.
# Nonspecific binding was measured using the crude membrane of nontransfected Expi293 cells. Specific binding was calculated by subtracting nonspecific binding from the binding of hSGLT2-expressing cells. Specific binding was normalized to hSGLT2 protein expression levels, measured via FSEC. The equilibrium dissociation constant (Kd) and maximum number of binding sites (Bmax) were calculated via nonlinear regression in GraphPad Prism 8.4.3. The specific binding of the hSGLT2 mutants was normalized to the Bmax of WT hSGLT2.
# The concentrations of the extract solution from the filter plate and of the cell lysate were quantified using a tandem mass spectrometry QTRAP6500 System (SCIEX) coupled with an ACQUITY UPLC system (Waters) using the internal standard method. Mobile phases A and B used 10 mM of ammonium bicarbonate and acetonitrile, respectively.
# [3] = test system: SGLT1 and SGLT2; conditions: in words; cited from earlier work
# [4] = test system: Mock cells; assay: α-MG uptake in mock (empty vector) HEK293 cells; format: cell-based, human; conditions: Control (no inhibitor)
# Description: HEK293 cells (ECACC 85120602) were maintained in Dulbecco’s modified Eagle medium (Gibco) supplemented with 10% fetal bovine serum (Thermo Scientific), 2 mM L-glutamine, 100 U ml^−1 benzylpenicillin and 100 µg ml^−1 streptomycin at 37 °C in a humidified atmosphere (5% CO2 in air). HEK293 cells were seeded at 1.0 × 10^5 cells per well in poly-L-lysine coated 24-well plates. The cells in each well were transiently transfected with 0.25 µg hMAP17 plasmid and 0.50 µg hSGLT2 plasmid using Lipofectamine 2000 (Life Technologies) and cultured for 48 h. […]
# Cell lysates were deproteinized by adding acetonitrile containing candesartan as the internal standard. The α-MG concentration was quantified via liquid chromatography–tandem mass spectrometry (LC–MS/MS) using the internal standard method.
# Cellular protein content was determined using a bicinchoninic acid protein assay kit (Thermo Fisher Scientific). The uptake of α-MG was expressed as the ratio of concentration in the cells (in pmol per mg protein) to concentration in the medium (in pmol μl^−1); this is known as the cell-to-medium ratio (in μl per mg protein).
# In the inhibition study, the cell-to-medium ratio of cells transfected with the empty vector was used as the background. […] IC50 was calculated via nonlinear regression using GraphPad Prism 8.4.3. […]
smiles,measurement,setting,value
O=C(CCc1ccc(O)cc1)c1c(O)cc(O)cc1O[C@@H]1O[C@H](CO)[C@@H](O)[C@H](O)[C@H]1O [Phlorizin],metabolic stability,[1],poor
Cc1ccc([C@@H]2O[C@H](CO)[C@@H](O)[C@H](O)[C@H]2O)cc1Cc1ccc(-c2ccc(F)cc2)s1 [Canagliflozin],Canagliflozin binding (% of WT),"[2]; 30 nM canagliflozin, WT, replicates",95.0024 % of WT and 98.5721 % of WT and 106.426 % of WT
same,Canagliflozin binding (% of hSGLT2),"[2]; 30 nM canagliflozin, hSGLT2 membrane",85.124 % of hSGLT2 and 96.4187 % of hSGLT2 and 118.457 % of hSGLT2
same,Bmax,"[2]; Na(+), mean ± SEM n=3",1.91 ± 0.16 pmol/mg-protein
same,Kd,"[2]; Na(+), mean ± SEM n=3",94 ± 21.8 nM
same,Bmax,"[2]; Na(-), mean ± SEM n=3",1.33 ± 0.12 pmol/mg-protein
same,Kd,"[2]; Na(-), mean ± SEM n=3",109 ± 25.4 nM
same,Canagliflozin binding,"[2]; Sodium 0 mM, replicates",0.5239 pmol/mg-protein and 0.5745 pmol/mg-protein and 0.6364 pmol/mg-protein
same,Canagliflozin binding,"[2]; Sodium 1 mM, replicates",0.4659 pmol/mg-protein and 0.5424 pmol/mg-protein and 0.6685 pmol/mg-protein
same,Canagliflozin binding,"[2]; Sodium 10 mM, replicates",0.8906 pmol/mg-protein and 0.8030 pmol/mg-protein and 0.9338 pmol/mg-protein
same,Canagliflozin binding,"[2]; Sodium 100 mM, replicates",0.9992 pmol/mg-protein and 1.5850 pmol/mg-protein and 1.3270 pmol/mg-protein
same,Bmax in the absence versus the presence of Na+ (in words),[2]; absence vs presence of Na+,partially lower
same,Kd,"[2]; in the presence of sodium, rounded value quoted by the referee in peer review file",~100 nM
same,subtype specificity of inhibition (SGLT1 vs SGLT2),[3],SGLT2-specific inhibition
"CO[C@H]1O[C@H](CO)[C@@H](O)[C@H](O)[C@H]1O [α-MG, α-methyl-D-glucopyranoside]",α-MG uptake,[4],1.2395 μL/mg-protein and 1.0638 μL/mg-protein and 1.0076 μL/mg-protein and 1.0525 μL/mg-protein
